The supplement of paper PMC13380429

What was measured:
Settings in all cases: 72 h
Caco-2 [1] = assay: cell viability relative to DMSO; higher = less toxic
Calu-3 [2] = assay: as above
HepG2 [3] = assay: as above
Vero E6 [4] = assay: as above
Caco-2 [5] = assay: relative viability EC50 (midpoint between 100% and the lowest measured viability); higher = less toxic
HepG2 [6] = assay: as above
Vero E6 [7] = assay: as above
Caco-2 [8] = assay: drug sensitivity score (DSS) for viability; higher = more toxic; extreme values may be limits of the assay
Calu-3 [9] = assay: as above
HepG2 [10] = assay: as above
Vero E6 [11] = assay: as above
U2OS [12] = assay: cell viability relative to DMSO; higher = less toxic
Calu-3 [13] = assay: relative viability EC50 (midpoint between 100% and the lowest measured viability); higher = less toxic
U2OS [14] = assay: as above
U2OS [15] = assay: drug sensitivity score (DSS) for viability; higher = more toxic; extreme values may be limits of the assay

Compound	cell viability (Caco-2 [1]; 1 nM)	cell viability (Caco-2 [1]; 10 nM)	cell viability (Caco-2 [1]; 100 nM)	cell viability (Caco-2 [1]; 1000 nM)	cell viability (Caco-2 [1]; 10000 nM)	cell viability (Calu-3 [2]; 1 nM)	cell viability (Calu-3 [2]; 10 nM)	cell viability (Calu-3 [2]; 100 nM)	cell viability (Calu-3 [2]; 1000 nM)	cell viability (Calu-3 [2]; 10000 nM)	cell viability (HepG2 [3]; 1 nM)	cell viability (HepG2 [3]; 10 nM)	cell viability (HepG2 [3]; 100 nM)	cell viability (HepG2 [3]; 1000 nM)	cell viability (HepG2 [3]; 10000 nM)	cell viability (Vero E6 [4]; 1 nM)	cell viability (Vero E6 [4]; 10 nM)	cell viability (Vero E6 [4]; 100 nM)	cell viability (Vero E6 [4]; 1000 nM)	cell viability (Vero E6 [4]; 10000 nM)	relative viability EC50 (Caco-2 [5])	relative viability EC50 (HepG2 [6])	relative viability EC50 (Vero E6 [7])	drug sensitivity score (Caco-2 [8])	drug sensitivity score (Calu-3 [9])	drug sensitivity score (HepG2 [10])	drug sensitivity score (Vero E6 [11])	cell viability (U2OS [12]; 1 nM)	cell viability (U2OS [12]; 10 nM)	cell viability (U2OS [12]; 100 nM)	cell viability (U2OS [12]; 1000 nM)	cell viability (U2OS [12]; 10000 nM)	relative viability EC50 (Calu-3 [13])	relative viability EC50 (U2OS [14])	drug sensitivity score (U2OS [15])
CCOC(=O)N1c2ccc(C(F)(F)F)cc2[C@@H](N(Cc2cc(C(F)(F)F)cc(C(F)(F)F)c2)C(=O)OC)C[C@H]1CC	108%	108%	100%	101%	87.2%	96.4%	98.9%	98.4%	86%	69%	99.3%	106%	94.3%	93.6%	75.5%	98.3%	99.1%	96.2%	98.4%	85.2%	> 10 µM	> 10 µM	> 10 µM	0.1	2.8	1.5	0.4	–	–	–	–	–	–	–	–
CCOC(=O)[C@H](Cc1ccc([N+](=O)[O-])cc1)NC(=O)c1ccccc1	104%	97.9%	102%	96.7%	90.7%	92.9%	103%	96.8%	102%	106%	99.4%	93.2%	107%	101%	95.2%	–	–	–	–	–	> 10 µM	> 10 µM	–	0	0	0	–	101%	98.3%	98.5%	101%	102%	> 10 µM	> 10 µM	0
CCc1cc(C(C)=O)c(O)cc1OCCCCCC(C)(C)c1nn[nH]n1	102%	92.1%	99.5%	107%	94.5%	108%	103%	97.1%	98%	93.3%	99.8%	107%	105%	88.4%	107%	–	–	–	–	–	> 10 µM	> 10 µM	–	0	0	0	–	94%	96.2%	88.1%	97.4%	95.5%	> 10 µM	> 10 µM	0
Cc1cc(C)c(N(Cc2ccccc2)S(=O)(=O)c2ccc(OCCNC(=O)c3cc4ccccc4o3)cc2)c(C(=O)NO)c1	94.1%	101%	105%	88.8%	42%	95.2%	103%	96.9%	99.4%	73.4%	93.4%	98.9%	91%	94.5%	37.8%	105%	107%	105%	104%	47%	1.77 µM	2.43 µM	3.55 µM	5	1.1	4.3	2.5	104%	96.3%	100%	98.5%	63.9%	–	–	1.9
NCCCCN(Cc1nc2ccccc2[nH]1)[C@H]1CCCc2cccnc21	100%	93.3%	97.1%	97.2%	104%	98.9%	93.1%	96.2%	90.4%	89.8%	100%	104%	97.6%	105%	82.8%	–	–	–	–	–	> 10 µM	> 10 µM	–	0	0	0.2	–	106%	100%	97.3%	96.6%	98.3%	> 10 µM	> 10 µM	0
NS(=O)(=O)Nc1ncnc(OCCOc2ncc(Br)cn2)c1-c1ccc(Br)cc1	106%	94.3%	102%	93.8%	97%	88.4%	99.1%	95.6%	104%	94.7%	102%	104%	98.9%	92.9%	90.9%	–	–	–	–	–	> 10 µM	> 10 µM	–	0	0	0	–	97.8%	94.5%	96.9%	102%	105%	> 10 µM	> 10 µM	0
O=C(Nc1ccncc1)c1cc([N+](=O)[O-])ccc1Cl	102%	86.1%	97.9%	96.3%	85.5%	–	–	–	–	–	103%	91.3%	105%	86%	99.4%	102%	97.3%	89.4%	88%	93.1%	> 10 µM	> 10 µM	> 10 µM	0	–	0	0.9	99.5%	104%	99.7%	106%	93.2%	–	> 10 µM	0
Cc1sc2c(c1C)C(c1ccc(Cl)cc1)=N[C@@H](CC(=O)Nc1ccc(OCCOCCOCCOCCNc3cccc4c3C(=O)N(C3CCC(=O)NC3=O)C4=O)cc1)c1nnc(C)n1-2 (stereo not given in full) [ARV-825]	91.4%	92.6%	90.1%	44%	51.7%	95.1%	91.4%	111%	72%	62.9%	95.4%	103%	89.9%	40.5%	25.2%	94.6%	105%	91%	76.3%	11%	0.184 µM	0.381 µM	1.55 µM	12	5	12.3	8.3	95.4%	93.6%	96.9%	51%	31.7%	–	0.577 µM	9.9
NC(=O)Nc1cc(-c2cccc(F)c2)sc1C(=O)N[C@H]1CCCNC1 [AZD7762]	96.3%	91.5%	102%	82.6%	25%	106%	96.4%	94.8%	43.4%	7%	97.8%	101%	103%	37.8%	1.3%	92%	99.1%	90.7%	84.6%	52.4%	1.61 µM	0.809 µM	–	6.9	12	12.7	4.1	101%	95.9%	97.3%	6.1%	0.1%	0.736 µM	0.352 µM	17.4
O=S(=O)(c1cccc2cnccc12)N1CCNCC1 [C-1]	96.8%	94.8%	105%	99.4%	104%	98.2%	91.8%	96.3%	99.5%	123%	93.2%	105%	95%	110%	104%	–	–	–	–	–	> 10 µM	> 10 µM	–	0	0	0	–	–	–	–	–	–	> 10 µM	–	–
Clc1ccc(-c2nc3sccn3c2/C=N/OCc2ccc(Cl)c(Cl)c2)cc1 [CITCO]	107%	98.5%	110%	94%	96.5%	92.2%	88.4%	93.1%	93.6%	92.1%	97%	104%	104%	104%	97.9%	–	–	–	–	–	> 10 µM	> 10 µM	–	0	0	0	–	96.3%	98.7%	99.5%	97.6%	94%	> 10 µM	> 10 µM	0
CC1(C)C[C@@H]1C(=O)N/C(=C\CCCCSC[C@H](N)C(=O)O)C(=O)O [Cilastatin Sodium]	101%	107%	105%	99%	102%	–	–	–	–	–	108%	102%	95.4%	87.7%	96.5%	104%	102%	99.2%	99.8%	94.3%	> 10 µM	> 10 µM	> 10 µM	0	–	0.9	0	97.4%	100%	95.9%	102%	97.6%	–	> 10 µM	0
C[C@@H](NC(=O)c1ncnc(N)c1Cl)c1ncc(C(=O)Nc2cc(C(F)(F)F)c(Cl)cn2)s1 [MLN2480]	101%	96.4%	103%	103%	91.5%	–	–	–	–	–	102%	102%	101%	91.9%	57%	95.4%	104%	111%	108%	108%	> 10 µM	–	> 10 µM	0	–	3.5	0	102%	101%	103%	102%	95.4%	–	> 10 µM	0
O=C(Cc1ccccc1)Nc1nc2ccc(Cl)cc2c2nc(-c3ccco3)nn12 [MRS-1220]	93.7%	100%	99.4%	94.1%	101%	104%	98.2%	95.3%	94.1%	93.5%	96.5%	93%	93.5%	95.6%	105%	–	–	–	–	–	> 10 µM	> 10 µM	–	0	0	0	–	98.8%	101%	97.2%	104%	96.9%	> 10 µM	> 10 µM	0
CCOC(=O)C1=C(C)NC(c2ccccc2)=C(C(=O)OCc2ccc([N+](=O)[O-])cc2)[C@@H]1C#Cc1ccccc1 [MRS-1334]	99.1%	99.7%	92.8%	96.8%	91.9%	99.2%	97.1%	96.8%	95.2%	98%	114%	104%	100%	92.6%	89.3%	–	–	–	–	–	> 10 µM	> 10 µM	–	0	0	0.1	–	104%	95.8%	100%	101%	97.9%	> 10 µM	> 10 µM	0
O=C(Nc1ccccc1)N1CCC(Cc2cnc3ccccc3c2)CC1 [PF-750]	106%	99.4%	94.5%	102%	88.3%	89.9%	88.1%	114%	95.7%	95.9%	96.6%	108%	103%	98.1%	93%	–	–	–	–	–	> 10 µM	> 10 µM	–	0	0	0	–	97.2%	92%	96.8%	96.5%	97.9%	> 10 µM	> 10 µM	0
OCc1ccc(-c2ccc(-c3ccc(CO)s3)o2)s1 [RITA]	99.2%	103%	100%	89.4%	77.8%	102%	101%	90.6%	103%	106%	107%	110%	88.3%	92.4%	4.6%	101%	103%	103%	102%	68%	> 10 µM	2.51 µM	–	1.9	0	6.5	1.3	95%	96.3%	102%	101%	32.4%	> 10 µM	3.25 µM	3.6
